According to patent US20220023450A1, “BONE MARROW-, RETICULOE[…]-, AND/OR LYMPH NODE-TARGETED RA[…] AND METHODS OF THEIR DIAGNOSTIC AND […] USE” (Memorial Sloan Kettering Cancer Center, priority 2018, published 2022):
Where two headings read alike, the source gives them in different places.

Tests used:
[1] = C57/BL6, mouse, in vivo
Procedure: Mice were sacrificed at the indicated time and major organs were collected and weighed. ^64Cu counting was done as soon as the organs were collected and ^3H counting was measured 5 days after mice were sacrificed. The % ID/g was calculated by measuring weight and time corrected measurement of radioactivity. n=5 per group.
For biodistribution studies, approximately 5.5 MBg of [^64Cu]-DOTA-Bz-DSPE-labeled liposome and 370 kBq of ^3H-GT3 incorporated liposome was intravenously administered to C57/BL6 athymic nude mice (n=5 per group) via tail vein injection. Mice were sacrificed at 24 or 48 h after injection and major organs were collected and placed in pre-weighed culture tubes or Eppendorf tubes. To collect bone marrow, the femur was dipped into liquid nitrogen and one of the epiphyses was carefully removed. A 30 mL syringe with gauge 30½ needles was inserted into one end of the femur; air was blown and bone marrow was collected in the same tubes for radioactivity counting in a gamma counter (PerkinElmer, Inc., Waltham, Mass.). For ^3H activity measurement, major organs were collected in pre-weighed scintillation vials and 500 uL of Soluene®-350 were added. After overnight incubation at 37° C., 4.5 mL of Ecoscint A were added, mixed well, and counted in scintillation counter. Data were presented as percent injected dose per gram (% ID/g) of tissue.

[2] = test system: peripheral blood cells (WBC, lymphocytes, platelets); assay: Blood cell recovery after sub-lethal total body irradiation (4 Gy); assay type: in vivo, C57/BL6 mice
Procedure: GT3-Lipo treated 24 h before TBI, GT3-Lipo treated 24 h after TBI, BMT only and no treatment.
FIGS. 3A and 3B a plot of complete blood count (CBC) data showing white blood cell (WBC) recovery after total body irradiation (TBI) (4 Gy) (FIG. 3A), and a plot of lymphocyte recovery after TBI (4 Gy) (FIG. 3B). C57BL6 mice were divided into 4 groups (5 mice per group). (Filled circle) GT3-Lipo treated 24 h before TBI. (Open square) BMT-Lipo treated 24 h before TBI. (Filled square) GT3-Lipo treated 24 h after TBI. (Open circle) No treatment. 10 mg/kg/mice GT3 were treated via i.v. and blood was collected by retro-orbital bleeding on day 0, 1, 4, 7, 14, 21, 43, 57 and 99.
White blood cells (WBC), lymphocytes, and neutrophils decreased to less than 10% of baseline counts with a nadir at day 1-4, post irradiation. […] Recovery of GT3 treated groups reached 100% at day 43. For the untreated group, WBC and lymphocyte counts recovered about 60% at day 43 and WBC and lymphocyte counts never recovered to normal level until day 99. Neutrophil counts decreased to nadir on day 4 for GT3 treated and untreated groups. […] recovered on day 7 and remained relatively the same counts until day 99. Platelet counts increased on day 1 and decreased to nadir on day 14. Platelet counts were recovered to normal level at day 43 and remained the same level until day 99 in all groups.
6- to 8-week-old C57/BL6 mice (Jackson Lab., Bar Harbor, Me.) were used for bone marrow protection from total body irradiation studies. 10 mg/kg GT3 liposomes (6% mol) were administered via i.v. 24 h pre- and post-total body irradiation (4 Gy, […], dose rate=82 cGy/min). No supportive care was given to mice after irradiation. Approximately 100 μL of blood was collected by retro-orbital blood collection for complete blood cell counts at various time points for 100 days.

[3] = test system: MDA-MB-468 tumor; assay: Focal radiation therapy of tumor after GT3 administration; assay type: in vivo; details: 10 mg/kg GT3 prior to 11 Gy focal irradiation
Text: Though GT3 accumulation in the tumor is moderate, there is possibility that GT3 in the tumor might protect tumor during radiation therapy. On the contrary, there are several reports that tocotrienols suppress the proliferation of a wide variety of tumor cells in culture, such as MDA-MB-435, MCF-7, PC-3, LnCaP and DLD-1. Animal studies also have been shown that tocotrienol suppresses the growth of tumors such as 7,12-dimethylbenz(a)anthracene induced mammary tumor, HepG2, and PC-3. To address the question that GT3 protects tumors from irradiation, focal radiation therapy was performed to evaluate the effect of GT3 in the tumor when 10 mg/kg GT3 was administered prior to 11 Gy focal irradiation.

Compound	loss of active drug during the tissue targeting process [1]	Biodistribution, Marrow ([1]; 24 h) [% ID/g]	Biodistribution, Spleen ([1]; 24 h) [% ID/g]	Biodistribution, Marrow ([1]; 48 h) [% ID/g]	Biodistribution, Spleen ([1]; 48 h) [% ID/g]	platelet counts compared with untreated group ([2]; 4 Gy TBI)	recovery of WBC and lymphocytes compared with untreated group ([2]; 4 Gy TBI, 10 mg/kg GT3 liposomes i.v. 24 h before or after TBI)	recovery of WBC and lymphocyte counts ([2]; day 43 after 4 Gy TBI, 10 mg/kg GT3 liposomes i.v.) [%]	effect on tumor response to focal radiation [3]
CC(C)=CCC/C(C)=C/CC/C(C)=C/CC[C@]1(C)CCc2cc(O)c(C)c(C)c2O1 [[^3H]-GT3]	approximately 50%	4.28±1.57	7.95±1.63	7.44±2.81	8.26±1.86				
CC(C)=CCC/C(C)=C/CC/C(C)=C/CC[C@]1(C)CCc2cc(O)c(C)c(C)c2O1 [GT3, (2R)-2,7,8-trimethyl-2-[(3E,7E)-4,8,12-trimethyltrideca-3,7,11-trienyl]-3,4-dihydrochromen-6-ol]						no significant differences	faster and more complete	100	does not protect nor sensitize
